The target of experiment [1] is T1, Avi-KRAS WT (1-169) GppNHp/RAF1 RBD-3×FLAG (52-151) (Homo sapiens, UniProt P01116).
T1 construct: 50 nM Avi-KRAS WT (1-169) GppNHp/RAF1 RBD-3×FLAG (52-151)
Briefly: Disrupting RAS-effector binding HTRF assay, Raf1 RBD-KRAS WT-GppNHp. The conditions noted are these: PPI HTRF, 50 nM Avi-KRAS WT GppNHp, compound titration 30-0.0045 μM; read-out: Raf1 RBD-KRAS WT-GppNHp disruption. As to the method:
(§1) A protein:protein interaction (PPI) Homogeneous Time Resolved Fluorescence (HTRF) assay was used to determine the effectiveness of compounds of the present disclosure in disrupting KRAS protein and effector RAF1 binding.
(§2) The HTRF assay used the following reagents and proteins: (i) 50 nM Avi-KRAS G12D (1-169) GppNHp/RAF1 RBD-3×FLAG (52-151); (ii) 50 nM Avi-KRAS G12R (1-169) GppNHp/RAF1 RBD-3×FLAG (52-151); (iii) 50 nM Avi-KRAS G12V (1-169) GppNHp/RAF1 RBD-3×FLAG (52-151), (iv) 50 nM Avi-KRAS WT (1-169) GppNHp/RAF1 RBD-3×FLAG (52-151); and (v) 75 nM Avi-RAF1 RBD-3×FLAG. The assay buffer included: 50 mM Tris pH 7.5, 100 mM NaCl, 5 mM MgCl2, 0.1% BSA, […], 10% DMSO. The bead buffer included: 50 mM Tris pH 7.5, 0.01% o Tween 20. Assay volume of 20 μL was used in a 384 well plate-low volume format. Compound titration: 30-0.0045 μM, 3× dilution series.
(§3) The HTRF assay employed the following protocol:
(§4) Compounds were dispensed in assay plate (384-well, Grenier Bione #784075) using Echo (model 555) with dose response settings: 200 nL final volume, titration from 30 μM as a 10-point dilution series. Protein mix was prepared in assay buffer, and dispensed on plates, 10 μL per well, then incubated for 1 h at room temperature, with 700 rpm shaking. Reagents mix was prepared and dispensed on plates, 10 μL per well, then incubated for 1 h at room temperature, with 700 rpm shaking.
(§5) Plates were analyzed on an Envision plate reader using the following setting: Excitation 320 nm, Bandwidth 75 nM; Emission 615 nm, Bandwidth 85 nM, Gain 100%, Flashes 100, Lag 60 μs. Data were reported as percentage of activity, with DMSO as 100%. Data were plotted and analyzed using Prism 8.
(§6) The biochemical Raf1-KRAS G12D/G12R/G12V/WT-GppNHP disruption assay IC50 of selected compounds described herein are shown in Table 4.
(In general: In TR-FRET formats the signal depends on donor and acceptor labels being close together.)

For experiment [2], the target named is T2, Avi-KRAS G12D (1-169) GppNHp/RAF1 RBD-3×FLAG (52-151) (Homo sapiens, UniProt P01116, G12D).
T2 construct: 50 nM Avi-KRAS G12D (1-169) GppNHp/RAF1 RBD-3×FLAG (52-151)
Briefly: Disrupting RAS-effector binding HTRF assay, Raf1 RBD-KRAS G12D-GppNHp. As to conditions: PPI HTRF, 50 nM Avi-KRAS G12D GppNHp, compound titration 30-0.0045 μM; read-out: Raf1 RBD-KRAS G12D-GppNHp disruption. The procedure:
as §1, §2, §3, §4, §5, §6

Experiment [3] has as its system KRAS G12D protein/effector signaling in GP2d cells. The experiment can be described thus: Cell-based pERK HTRF assay in GP2d cell. The conditions noted are these: 1 h, 60 min incubation. The procedure: A pERK assay (Perkin Elmer) was used to determine the effectiveness of compounds in disrupting KRAS G12D protein/effector signaling in cells.
On Day 1, cells (GP2d) were seeded into 96-well plates at 3×10^4 cells/well in 80 μL complete growth media (DMEM, 10% FBS).
On Day 2, cells were treated with compounds at 0.25% DMSO. The source plate was created with compounds diluted in media at 5-fold the final assay concentration. The compounds were run in a 9-point concentration curve starting at […], with a half-log dilution between concentrations. 20 μL was transferred onto the cell plates (final volume in wells was 100 μL). Plates were harvested after 60 min incubation by aspirating media and adding kit-supplied 1× supplemented lysis buffer to all wells (50 μL per well). Plates were then placed on a plate shaker and incubated at 850 rpm for an additional 30 min.
Antibody mixture solution was prepared by diluting aliquoted d2 and Eu Cryptate antibodies 1:20 in kit supplied detection buffer, and mixing the diluted antibodies solutions (1:1 v:v). 4 μL of this solution was then added to a 384-well detection plate (Perkin Elmer; 6008230).
Samples were homogenized by pipetting up and down and then transferred (16 μL of cell lysates) from the 96-well cell culture plate to two wells of the HTRF 384-well detection plate containing the antibody solution. Plates were centrifuged (524 g for 1 min) and allowed to incubate between 4 and 24 h at room temperature. Maximum signal was reached after 4 h incubation time and remained stable over a period of 24 hours. Therefore, readings could be made between 4 and 24 h of incubation. Plates were centrifuged again (524 g for 1 min), then analyzed on the EnVision plate reader using the following settings: Excitation 320 nm, Bandwidth 75 nm; Emission 615 nm, Bandwidth 85 nm; Gain 100%; Flashes 100; Lag 60 μs.

For experiment [4], the target named is T3, Avi-KRAS G12R (1-169) GppNHp/RAF1 RBD-3×FLAG (52-151) (Homo sapiens, UniProt P01116, G12R).
T3 construct: 50 nM Avi-KRAS G12R (1-169) GppNHp/RAF1 RBD-3×FLAG (52-151)
Briefly: Disrupting RAS-effector binding HTRF assay, Raf1 RBD-KRAS G12R-GppNHp. The conditions noted are these: PPI HTRF, 50 nM Avi-KRAS G12R GppNHp, compound titration 30-0.0045 μM; read-out: Raf1 RBD-KRAS G12R-GppNHp disruption. The procedure: as §1, §2, §3, §4, §5, §6

Experiment [5] deals with T4, Avi-KRAS G12V (1-169) GppNHp/RAF1 RBD-3×FLAG (52-151) (Homo sapiens, UniProt P01116, G12V).
T4 construct: 50 nM Avi-KRAS G12V (1-169) GppNHp/RAF1 RBD-3×FLAG (52-151)
Briefly: Disrupting RAS-effector binding HTRF assay, Raf1 RBD-KRAS G12V-GppNHp. As to conditions: PPI HTRF, 50 nM Avi-KRAS G12V GppNHp, compound titration 30-0.0045 μM; read-out: Raf1 RBD-KRAS G12V-GppNHp disruption. The procedure:
as §1, §2, §3, §4, §5, §6

T4 sequence (P01116 1-169 isoform P01116-2 G12V limits assumed): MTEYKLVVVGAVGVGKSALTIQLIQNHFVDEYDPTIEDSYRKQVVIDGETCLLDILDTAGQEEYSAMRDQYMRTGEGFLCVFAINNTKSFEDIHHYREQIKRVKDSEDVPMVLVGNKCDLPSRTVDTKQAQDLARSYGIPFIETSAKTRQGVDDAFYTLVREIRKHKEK
T3 sequence (P01116 1-169 isoform P01116-2 G12R limits assumed): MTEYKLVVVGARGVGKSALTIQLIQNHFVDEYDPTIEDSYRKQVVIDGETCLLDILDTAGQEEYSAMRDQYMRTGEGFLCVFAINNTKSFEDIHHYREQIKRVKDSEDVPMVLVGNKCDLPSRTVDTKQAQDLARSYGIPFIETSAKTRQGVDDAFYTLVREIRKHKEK
T2 sequence (P01116 1-169 isoform P01116-2 G12D limits assumed): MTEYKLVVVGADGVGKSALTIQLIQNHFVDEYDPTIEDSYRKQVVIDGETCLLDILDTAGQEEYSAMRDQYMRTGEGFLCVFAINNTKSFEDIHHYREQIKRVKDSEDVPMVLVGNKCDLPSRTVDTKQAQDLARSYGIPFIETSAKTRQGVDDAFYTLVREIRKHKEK
T1 sequence (P01116 1-169 isoform P01116-2 limits assumed): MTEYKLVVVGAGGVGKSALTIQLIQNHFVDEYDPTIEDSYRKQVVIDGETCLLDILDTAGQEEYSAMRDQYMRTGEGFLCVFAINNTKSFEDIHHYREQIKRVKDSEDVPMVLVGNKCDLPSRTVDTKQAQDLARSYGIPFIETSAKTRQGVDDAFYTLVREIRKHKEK

Take `CC(C)Oc1nc(N2CC3CCC(C2)N3)c2cc(C(F)(F)F)c(-c3ccc(F)c4sc(N)c(C#N)c34)c(F)c2n1` [Compound 8]: the IC50 was 1 to 10 µM in experiment [1]; 1 to 10 µM in experiment [2]; 100 to 1000 nM in experiment [3]; above 10 µM in experiment [4]; above 10 µM in experiment [5].

For the molecule `COCCOc1nc(N2CC3CCC(C2)N3)c2cc(C(F)(F)F)c(-c3ccc(F)c4sc(N)c(C#N)c34)c(F)c2n1` [Compound 15], the IC50 was 1 to 10 µM in experiment [1]; 1 to 10 µM in experiment [2]; at most 100 nM in experiment [3]; above 10 µM in experiment [4]; above 10 µM in experiment [5].

Regarding `COc1nc(N(C)[C@@H]2CCNC2)c2cc(C(F)(F)F)c(-c3ccc(F)c4sc(N)c(C#N)c34)c(F)c2n1` [Compound 59], the IC50 in experiment [1] is above 10 µM; in experiment [2], 1 to 10 µM; in experiment [3], 100 to 1000 nM; in experiment [4] it was above 10 µM; in experiment [5] it was above 10 µM.

For `N#Cc1c(N)sc2c(F)ccc(-c3c(C(F)(F)F)cc4c(N5CC6CCC(C5)N6)nc(OC5CCC5)nc4c3F)c12` [Compound 17], the IC50 in experiment [1] is 1 to 10 µM; in experiment [2], 1 to 10 µM; in experiment [3] it was 100 to 1000 nM; in experiment [4], above 10 µM; in experiment [5], above 10 µM.

On to `N#Cc1c(N)sc2c(F)ccc(-c3c(C(F)(F)F)cc4c(N5CC6CCC(C5)N6)nc(N5CC[C@H](O)C5)nc4c3F)c12` [Compound 4], for which the IC50 in experiment [1] is 1 to 10 µM; in experiment [2] it was 1 to 10 µM; in experiment [3] it was 100 to 1000 nM; in experiment [4] it was above 10 µM; in experiment [5], above 10 µM.

For `COc1nc(N2CC3CCC(C2)N3)c2cc(C(F)(F)F)c(-c3ccc(F)c4sc(N)c(C#N)c34)c(F)c2n1` [Compound 1], the IC50 in experiment [1] was 1 to 10 µM; in experiment [2] it was 1 to 10 µM; in experiment [3], at most 100 nM; in experiment [4], above 10 µM; in experiment [5] it was above 10 µM.

As for `N#Cc1c(N)sc2c(F)ccc(-c3c(C(F)(F)F)cc4c(N5CC6CCC(C5)N6)nc(N5CCNC(=O)CC5)nc4c3F)c12` [Compound 25], the IC50 in experiment [1] is 1 to 10 µM; in experiment [2], 1 to 10 µM; in experiment [3], 100 to 1000 nM; in experiment [4], above 10 µM; in experiment [5], above 10 µM.

Regarding `N#Cc1c(N)sc2c(F)ccc(-c3c(C(F)(F)F)cc4c(N5CC6CCC(C5)N6)nc(OCC5CCCCC5)nc4c3F)c12` [Compound 2], the IC50 in experiment [1], in experiment [2], in experiment [4] and in experiment [5] was above 10 µM in each case.

For `CC(=O)N(C)c1nc(N2C[C@H]3CC[C@@H](C2)N3)c2cc(C(F)(F)F)c(-c3ccc(F)c4sc(N)c(C#N)c34)c(F)c2n1` [Compound 21, N-(7-(2-amino-3-cyano-7-fluorobenzo[b]thiophen-4-yl)-4-((1R,5S)-3,8-diazabicyclo[3.2.1]octan-3-yl)-8-fluoro-6-(trifluoromethyl)quinazolin-2-yl)-N-methylacetamide], the IC50 is 1 to 10 µM in experiment [1]; above 10 µM in experiment [2]; 100 to 1000 nM in experiment [3]; above 10 µM in experiment [4]; above 10 µM in experiment [5].

With `N#Cc1c(N)sc2c(F)ccc(-c3c(C(F)(F)F)cc4c(N5CC6CCC(C5)N6)nc(OCC5(O)CC5)nc4c3F)c12` [Compound 7], the IC50 in experiment [1] is above 10 µM; in experiment [2] it was 1 to 10 µM; in experiment [3] it was 100 to 1000 nM; in experiment [4] it was above 10 µM; in experiment [5] it was above 10 µM.

Regarding `N#Cc1c(N)sc2c(F)ccc(-c3c(C(F)(F)F)cc4c(N5CC6CCC(C5)N6)nc(OC5CC(O)C5)nc4c3F)c12` (stereo not drawn) [Compound 11], the IC50 in experiment [1] is above 10 µM; in experiment [2] it was 1 to 10 µM; in experiment [3] it was 100 to 1000 nM; in experiment [4], above 10 µM; in experiment [5] it was above 10 µM.

As for `N#Cc1c(N)sc2c(F)ccc(-c3c(C(F)(F)F)cc4c(N5CC6CCC(C5)N6)nc(OCC5(CO)CC5)nc4c3F)c12` [Compound 18], the IC50 was 1 to 10 µM in experiment [1]; 0.1 to 1 µM in experiment [2]; at most 100 nM in experiment [3]; 1 to 10 µM in experiment [4]; 1 to 10 µM in experiment [5].

With `N#Cc1c(N)sc2c(F)ccc(-c3c(C(F)(F)F)cc4c(N5CC6CCC(C5)N6)nc(OCCc5cn[nH]c5)nc4c3F)c12` [Compound 19], the IC50 in experiment [1] was 1 to 10 µM; in experiment [2] it was 1 to 10 µM; in experiment [3], at most 100 nM; in experiment [4] it was above 10 µM; in experiment [5], above 10 µM.

Consider `N#Cc1c(N)sc2c(F)ccc(-c3c(C(F)(F)F)cc4c(N5CC6CCC(C5)N6)nc(N5CCCC5)nc4c3F)c12` [Compound 20], for which the IC50 is 1 to 10 µM in experiment [1]; 1 to 10 µM in experiment [2]; 100 to 1000 nM in experiment [3]; above 10 µM in experiment [4]; above 10 µM in experiment [5].

Regarding `N#Cc1c(N)sc2c(F)ccc(-c3c(C(F)(F)F)cc4c(N5CC6CCC(C5)N6)nc(N5CCNS(=O)(=O)CC5)nc4c3F)c12` [Compound 26], the IC50 in experiment [1] was 1 to 10 µM; in experiment [2], 1 to 10 µM; in experiment [3] it was 100 to 1000 nM; in experiment [4], above 10 µM; in experiment [5], above 10 µM.

Regarding `N#Cc1c(N)sc2c(F)ccc(-c3c(C(F)(F)F)cc4c(N5C[C@H]6CC[C@@H](C5)N6)ncnc4c3F)c12` [Compound 5, 4-(4-((1R,5S)-3,8-diazabicyclo[3.2.1]octan-3-yl)-8-fluoro-6-(trifluoromethyl)quinazolin-7-yl)-2-amino-7-fluorobenzo[b]thiophene-3-carbonitrile], the IC50 in experiment [1] is 1 to 10 µM; in experiment [2], 1 to 10 µM; in experiment [3] it was at most 100 nM; in experiment [4], above 10 µM; in experiment [5] it was above 10 µM.

As for `COc1nc(N2C[C@@H](C)NC[C@@H]2C)c2cc(C(F)(F)F)c(-c3ccc(F)c4sc(N)c(C#N)c34)c(F)c2n1` [Compound 60], the IC50 is above 10 µM in experiment [1]; above 10 µM in experiment [2]; above 1000 nM in experiment [3]; above 10 µM in experiment [4]; above 10 µM in experiment [5].

(Values after US20260035376A1, “COMPOSITIONS AND METHODS FOR INHIBITION OF RAS” (TheRas, Inc., priority 2022, published 2026).)
